The values below come from PubChem BioAssay AID1850 (Southern Research Specialized Biocontainment Screening …, 2009).

Values joined by “and” are separate entries in the source; they are usually repeats but may differ in a detail not shown here. Equal values may be shown once.

This test has as its system Salmonella Typhi PhoP-promoter GFP reporter, fluorescence, 4 h. The experiment in a line: PhoP regulon inhibitors, Salmonella typhi PhoP promoter GFP reporter, confirmatory (AID 1850).
With `[O-][n+]1cccc2c(Br)cc(Br)c(O)c21`, the IC50 was 69.1 µM.

Take `O=C(N/N=C/c1ccc([N+](=O)[O-])s1)c1cccnc1`: the half-maximal inhibitory concentration (IC50) is 24 µM.

In the case of `Nc1cc2c3c(cccc3c1)C(=O)N(CCN1CCCC1)C2=O`, the 50% inhibitory concentration (IC50) is 83.8 µM.

For the molecule `CC1CCC(C(C)C)C(OC(=O)Cn2c(-c3ccc(Cl)cc3)[n+](C)c3ccccc32)C1` (stereo unspecified), the IC50 was 50.4 µM.

Regarding `Cc1c(CCOC(=O)C2C3CC4CC(C3)CC2C4)sc[n+]1CC(=O)c1ccc(Br)cc1` (stereo unspecified), the IC50 was 34.8 µM.

For `CC(=O)OC1=C(O)C(=O)c2ccccc2C1=O`, the concentration for half-maximal inhibition (IC50) was 142 µM.

Turning to `O=C(CCN1CCN(c2ccccc2)CC1)c1ccc(Br)cc1`, the IC50 is 104 µM.

`O/N=C/c1ccc(OCc2ccccc2)c(Cl)c1`: the IC50 is 80.6 µM.

For `C1=C(CCNc2ncnc3c2[nH]c2ccccc23)CCCC1`, the IC50 is 30.7 µM.

Regarding `CNC[C@@H](CC1CCCCC1)NC[C@H](CC(C)C)NCCc1cccc(C(F)(F)F)c1`, the IC50 is 19.8 µM.

Regarding `Cc1c(CN(C)C)c2c(n1Cc1ccccc1)C(=O)c1ccc(Br)cc1-2`, the IC50 was 76.5 µM.

Consider `Nc1c2ccccc2nc2ccccc12`, for which the IC50 was 36.8 µM.

`CN(C)c1ccc(Nc2nc(N)c3ccccc3n2)cc1`: the IC50 was 30.9 µM.

Consider `O=C(N/N=C/c1ccccc1O)c1ccncc1`, for which the IC50 is 35.9 µM.

`O=C1C2=C(Nc3ccccc3SC2c2ccco2)c2ccccc21` (stereo unspecified): the IC50 was 12.3 µM.

In the case of `CCOC(=O)c1ccccc1-n1c(C)cc(C2N=C(N)Nc3nc4ccccc4n32)c1C` (stereo unspecified), the half-maximal inhibitory concentration (IC50) was 36.6 µM.

In the case of `O=C(Nc1nnc(-c2cccs2)o1)c1cccc(Oc2ccccc2)c1`, the IC50 is 61.1 µM.

As for `CCn1cc(C(=O)O)c(=O)c2cc(F)c(N3CCN(S(=O)(=O)c4ccc(NC(C)=O)cc4)CC3)cc21`, the IC50 is 103 µM.

Regarding `CN1CCN(c2nc(Nc3ccc(F)cc3)nc(Nc3ccc(F)cc3)n2)CC1`, the IC50 was 80.6 µM.

Take `Cc1cc(C)c(OCCCCNCc2ccccc2)c(Cl)c1`: the IC50 is 74.6 µM.

Regarding `Nc1ncn(C2O[C@H](CO)[C@@H](O)[C@H]2O)c(=O)n1` (stereo partly specified), the IC50 was 34 µM.

`O=C1CN(/N=C/c2ccc([N+](=O)[O-])o2)C(=O)N1`: the IC50 was 41.1 µM.

Consider `O=C(O)c1ccc(N2C(=O)CC(N3C(=O)/C(=C/c4ccc(Cl)cc4)SC3=S)C2=O)cc1` (stereo unspecified), for which the IC50 was 34.3 µM.

Consider `C#CCOCCOCCOCCNc1nc(N2CCN(C(=O)CCCCCCCCCCNC(=O)[C@H]([C@@H](C)CC)n3cc(CCCCN=C(N)N)nn3)CC2)nc(N2CCN(C(=O)CCCCCCCCCCNC(=O)[C@H](CCCCN)n3cc(C)nn3)CC2)n1`, for which the IC50 was 35.7 µM.

For the molecule `O=C(Nc1ccc(Cl)cc1)Nc1ccc2c(c1)N1CCN=C1S2`, the half-inhibitory concentration (IC50) was 68.5 µM.

Regarding `Cc1cccc(Nc2cc(C)c3c(O)cccc3n2)c1C`, the IC50 is 17.4 µM.

With `COc1ccc(CNc2ncnc3c2[nH]c2ccccc23)cc1`, the IC50 was 84.5 µM.

As to `CCCCCCCCCCOC(=O)Cn1c(COc2cccc(C)c2)[n+](C)c2ccccc21`, the IC50 is 12.4 µM.

Regarding `c1cnc2c(c1)ccc1cccnc12`, the IC50 is 49.3 µM and 39.1 µM.

Take `COc1ccc(C2NCCc3c2[nH]c2ccccc32)cc1COc1ccc(F)cc1` (stereo unspecified): the half-inhibitory concentration (IC50) was 39.1 µM.

Regarding `O=C(c1ccccc1)c1c2c(cc3sc4ccccc4[n+]13)-c1cccc3cccc-2c13`, the IC50 is 35.9 µM.

For the molecule `CN(C)c1ccc(O)c2c1CC1CC3C(N(C)C)C(=O)C(C(N)=O)=C(O)[C@@]3(O)C(=O)C1=C2O` (stereo partly specified), the IC50 is 8.82 µM.

In the case of `O=C(CCN1CCN(c2ccccc2)CC1)N/N=C/c1ccc([N+](=O)[O-])o1`, the IC50 was 138 µM.

Take `CC(=O)NNC(=S)NC(=O)c1ccccc1`: the IC50 is 20.5 µM.

On to `O=C(CC(=O)c1ccccc1O)c1cccc(F)c1`, for which the IC50 was 20.8 µM.

As for `C=CCn1c(NS(=O)(=O)c2ccccc2)c(S(=O)(=O)c2ccc(C)cc2)c2nc3ccccc3nc21`, the IC50 is 50.4 µM.

Consider `CCCCCCCCCCOC(=O)Cn1c(COc2cccc(OC)c2)[n+](C)c2ccccc21`, for which the IC50 was 12.7 µM.

As for `CN1CCC(OC(=O)c2ccc(Cl)cc2Cl)CC1`, the IC50 was 146 µM.

`CC1(C)N=C(N)N=C(N)N1c1ccc(Oc2ccc(Cl)cc2)c(Cl)c1`: the IC50 is 33.8 µM.

As for `O=C(Nc1csc(Cl)c1)c1ccccc1`, the IC50 is 25.1 µM.

In the case of `Cc1cc(C)n(/N=C/c2cc([N+](=O)[O-])ccc2O)c(=O)c1`, the concentration for half-maximal inhibition (IC50) was 92 µM.

Turning to `Cc1ccc(OCC(=O)N/N=C\c2c(C)[nH]n(-c3ccccc3)c2=O)c([N+](=O)[O-])c1`, the IC50 is 66.6 µM.

As to `COC(=O)C1C(O)C(C)C(O)C(C)(O)/C=C\C=C(/C)C(=O)Nc2c(C)c(OC(C)=O)c3c(c2O)C(=O)C(C)=C2OCOC(=C23)/C(C)=C/C(C)(O)C(O)C(C)C1O` (stereo unspecified), the IC50 is 27.3 µM.

For the molecule `CNCc1c(OCc2ccccc2F)ccc2ccccc12`, the IC50 was 79.5 µM.

Take `NC(N)=N/N=C/c1ccc(OCc2ccc(Cl)cc2Cl)cc1`: the IC50 is 18.4 µM.

Regarding `Oc1c(Br)cc(Br)cc1C=Nc1cccc2ncccc12`, the IC50 is 37.2 µM.

Turning to `Cc1ccc(-c2cc(-c3ccc(C)cc3)[n+](-c3ccccc3)c(-c3ccc(C)cc3)c2)cc1`, the IC50 was 35 µM.

With `CCCCCCCSc1cc(OC)c(CCN(C)C)cc1OC`, the concentration for half-maximal inhibition (IC50) was 35.7 µM.

`O=C(c1ccc([N+](=O)[O-])o1)N1CCOCC1`: the IC50 is 76.8 µM.

With `CC(C)CCC(CCNCc1ccccn1)c1ccc(Cl)cc1` (stereo unspecified), the IC50 was 65.4 µM.

As for `CC(C)(C)/C(O)=C/c1nc2cc(Cl)ccc2oc1=O`, the IC50 is 18.2 µM.

In the case of `CNC(=S)N1CCN(c2c(F)cc3c(=O)c(C(=O)O)cn(C4CC4)c3c2OC)CC1C` (stereo unspecified), the concentration for half-maximal inhibition (IC50) is 7.83 µM.

Take `Nc1nnc(-c2cccc(Cl)c2Cl)c(N)n1`: the half-inhibitory concentration (IC50) was 65.3 µM.

For the molecule `O=C1C(=O)c2ccccc2-c2ccccc21`, the IC50 was 20.7 µM.

As to `Cc1ccc(C(=O)N/C(=C\c2ccc(-c3ccc(Cl)cc3)o2)C(=O)NCCCN(C)C)cc1`, the 50% inhibitory concentration (IC50) was 37.6 µM.

Take `CN(C)C1C(=O)C(C(N)=O)=C(O)C2(O)C(=O)C3=C(O)c4c(O)cccc4C(C)(O)C3C(O)C12` (stereo unspecified): the 50% inhibitory concentration (IC50) was 1.01 µM.

For `Cc1cccc(C(=O)NNC(=S)NC(=O)c2cccs2)c1`, the IC50 was 65.7 µM.

Regarding `COc1ccc(S(=O)(=O)N2CN3CCN(C3)C2)cc1`, the IC50 was 144 µM.

Turning to `C=CCNc1ncnc2c1[nH]c1ccc(C)cc12`, the IC50 is 18.9 µM.

For the molecule `CC1CCc2c(N3CCC(O)CC3)c(F)cc3c(=O)c(C(=O)O)cn1c23` (stereo unspecified), the IC50 was 3.02 µM.

As for `CCCCCCCNC(=O)C1(CC2CC(c3cccc(Br)c3)=NO2)CCNCC1` (stereo unspecified), the IC50 was 53.7 µM.

`CCCCCc1ccc(OCCC[n+]2ccccc2)c(CCCCC)c1`: the 50% inhibitory concentration (IC50) is 39.5 µM.

With `OC(CNCc1ccco1)Cn1c2ccc(Br)cc2c2cc(Br)ccc21` (stereo unspecified), the IC50 was 20.8 µM.

As for `OCCN1CCN(C2CCC(c3ccc(F)cc3)c3ccc(F)cc32)CC1` (stereo unspecified), the IC50 was 36.6 µM.

On to `N=c1n(CC(=O)c2ccc(Br)s2)c2ccccc2n1Cc1ccccc1`, for which the IC50 was 51.8 µM.

Take `COc1cccc(Nc2nc(NCC3CCCO3)c3ccccc3n2)c1` (stereo unspecified): the IC50 is 10.2 µM.

On to `C/C(=N\NC(=O)c1cccc(Br)c1)c1ccccn1`, for which the IC50 was 36.6 µM.

As to `CC(NCc1ccc(-c2ccccc2)cc1)C(O)c1ccccc1` (stereo unspecified), the IC50 is 63.6 µM.

With `Nc1nc(Nc2ccccc2)nc2ccccc12`, the IC50 was 34.4 µM.

In the case of `C#CCOCCOCCOCCNc1nc(N2CCN(C(=O)CCCCCCCCCCNC(=O)[C@H](CCCCN)n3cc(C[C@@H](C)CC)nn3)CC2)nc(N2CCN(C(=O)CCCCCCCCCCNC(=O)[C@H](CCCN=C(N)N)n3cc(C[C@@H](C)CC)nn3)CC2)n1`, the IC50 was 33.3 µM.

`O=C(CCN1CCN(c2ccccc2F)CC1)c1ccc(Br)cc1`: the IC50 was 39 µM.

In the case of `O=C1OCC(CO)(CO)N=C1NNc1ccc(Cl)c(Cl)c1`, the IC50 is 47.9 µM.

As to `CNC[C@@H](Cc1ccccc1)NC[C@@H](CC1CCCCC1)NCCCc1ccccc1`, the IC50 was 38.2 µM.

For the molecule `CC1(CC(=O)N/N=C/c2cc([N+](=O)[O-])c(O)cc2O)OCCO1`, the IC50 was 77.7 µM.

Take `O=c1c(O)cccc2cc(O)c(O)c(O)c12`: the IC50 is 25.8 µM.

Regarding `CC[C@H]1OC(=O)C[C@@H](O)[C@H](C)[C@@H](O[C@@H]2O[C@H](C)C[C@H](N(C)C)[C@H]2O)[C@@H](CC=O)C[C@@H](C)C(=O)C=C[C@]2(C)O[C@H]2[C@@H]1C`, the IC50 was 7.16 µM.

As to `O=C(COc1ccc(Br)cc1CNCCc1ccccc1)NCc1ccccc1`, the IC50 is 106 µM.

For `Oc1ccc(Cl)cc1Cc1cc(Cl)ccc1O`, the IC50 was 33.8 µM.

For `CC1CCc2cc(F)cc3c(=O)c(C(=O)O)cn1c23` (stereo unspecified), the IC50 is 6.15 µM.

As for `CCn1cc(C(=O)O)c(=O)c2cc(F)c(N3CCNCC3)cc21`, the IC50 is 0.27 µM.

Take `CCOC(=O)N1CCN(C(=O)c2cn(CC)c3cc(N4CCN(C)CC4)c(F)cc3c2=O)CC1`: the IC50 is 3.42 µM.

Turning to `c1ccc(CN2CCC(Nc3nc(-c4ccccc4)nc4ccccc34)CC2)cc1`, the IC50 is 35 µM.

Turning to `CCCCCCCSc1cc(OC)c(CCNC)cc1OC`, the IC50 is 35.9 µM.

Consider `c1ccc2c(c1)C(=NC1CCCCC1)NC2=NC1CCCCC1`, for which the IC50 was 65.6 µM.

Regarding `CCCCCC(=O)NC(=S)NNC(=O)CC`, the IC50 is 133 µM.

Consider `COc1cc(CNCCc2c[nH]c3ccccc23)ccc1OCc1ccccc1F`, for which the IC50 was 133 µM.

Take `CCCCCCC[N+](CC)(CC)CCCCc1ccc(Cl)cc1`: the IC50 is 54.7 µM.

Turning to `O=C(C[n+]1ccc(-c2ccccc2)cc1)Nc1ccc([N+](=O)[O-])cc1`, the IC50 was 40.5 µM.

As to `O=[N+]([O-])c1cc(F)c2cccnc2c1O`, the IC50 is 6.57 µM.

In the case of `N=c1c2c(n(Cc3ccc(Cl)cc3Cl)c3c1CCC3)CCCC2`, the IC50 was 42.3 µM.

In the case of `C/C(O)=C\c1nc2ccccc2oc1=O`, the IC50 was 44.4 µM.

As to `C#CCOCCOCCOCCNc1nc(N2CCN(C(=O)C(Cc3ccc(O)cc3)n3cc(C(N)CC(C)C)nn3)CC2)nc(N2CCN(C(=O)C(Cc3cc4ccccc4[nH]3)n3cc(C(N)Cc4ccc(O)cc4)nn3)CC2)n1` (stereo unspecified), the IC50 is 130 µM.

For the molecule `Fc1ccccc1CCNCc1ccccc1`, the half-maximal inhibitory concentration (IC50) was 34.1 µM.

`CC(C)(C)c1ccc(OCCCCCCN2CCNCC2)cc1`: the IC50 was 69.2 µM.

For the molecule `CC(C)(C)c1ccc(NC(=O)COC(=O)c2ccc([N+](=O)[O-])s2)cc1`, the IC50 was 21.6 µM.

Take `CCCCCC(CC(=O)NO)C(=O)NC(C(=O)N1CCCC1CO)C(C)C` (stereo unspecified): the IC50 was 15.5 µM.

The IC50 is the point on the concentration scale where inhibition reaches its midpoint.
